The text below walks through data of BindingDB's records for doi:10.1021/jm8003625 (Abbott Laboratories, 2008).

For assay [1], the target named is Histamine H3 receptor (Rattus norvegicus, UniProt Q9QYN8). The assay can be described thus: Radioligand Binding Assay. Here is the method: (§1) Competition radioligand binding assays were performed with increasing concentrations of test compound in the presence of [3H]ligand. All binding reactions were terminated by filtration. Bound radiolabel was determined by liquid scintillation counting. For all of the radioligand competition binding assays, IC50 values and Hill slopes were determined by Hill transformation of the data and Ki values were determined by the Cheng-Prusoff equation.

In assay [2] the target is Histamine H3 receptor (Homo sapiens, UniProt Q9Y5N1). The assay can be described thus: Radioligand Binding Assay. To be noted: pH 7.4; 25 °C. As to the method: as §1
Histamine H3 receptor (Homo sapiens, UniProt Q9Y5N1), sequence (Q9Y5N1 whole entry): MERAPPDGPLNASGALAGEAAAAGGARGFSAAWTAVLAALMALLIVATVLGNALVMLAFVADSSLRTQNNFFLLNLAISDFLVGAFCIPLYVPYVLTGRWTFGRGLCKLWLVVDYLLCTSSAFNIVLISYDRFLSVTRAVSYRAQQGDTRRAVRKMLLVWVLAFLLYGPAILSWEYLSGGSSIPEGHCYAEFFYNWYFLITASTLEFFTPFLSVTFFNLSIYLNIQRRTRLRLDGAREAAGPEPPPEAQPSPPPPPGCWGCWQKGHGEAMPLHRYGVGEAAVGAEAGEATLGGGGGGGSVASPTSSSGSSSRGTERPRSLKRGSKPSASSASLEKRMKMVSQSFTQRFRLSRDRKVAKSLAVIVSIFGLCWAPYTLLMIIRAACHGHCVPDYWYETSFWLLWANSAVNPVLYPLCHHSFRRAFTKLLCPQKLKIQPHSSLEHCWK

Histamine H3 receptor (Rattus norvegicus, UniProt Q9QYN8), sequence (Q9QYN8 whole entry): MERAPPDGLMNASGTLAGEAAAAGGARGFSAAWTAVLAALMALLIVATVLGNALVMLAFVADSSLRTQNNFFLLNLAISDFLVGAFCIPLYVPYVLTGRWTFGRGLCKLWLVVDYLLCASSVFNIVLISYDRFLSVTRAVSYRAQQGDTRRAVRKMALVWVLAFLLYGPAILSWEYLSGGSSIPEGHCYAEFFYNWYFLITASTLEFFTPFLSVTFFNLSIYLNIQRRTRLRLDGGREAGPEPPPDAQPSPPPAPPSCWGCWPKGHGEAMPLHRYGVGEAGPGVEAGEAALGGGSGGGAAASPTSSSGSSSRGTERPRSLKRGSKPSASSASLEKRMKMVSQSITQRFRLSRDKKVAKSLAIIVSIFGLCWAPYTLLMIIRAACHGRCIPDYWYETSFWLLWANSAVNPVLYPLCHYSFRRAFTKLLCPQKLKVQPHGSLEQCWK

Turning to `CN[C@H]1CC[C@@]2(C)C(=CC[C@H]3[C@@H]4CC[C@@H]5[C@H](C)N(C)C[C@@]54CC[C@@H]32)C1` [(1R,2S,5S,6S,9R,12S,13R,16S)-N,6,7,13-tetramethyl-7-azapentacyclo[10.8.0.0^{2,9}.0^{5,9}.0^{13,18}]icos-18-en-16-amine], the Ki amounted to 302 nM on Histamine H3 receptor [1] and 38 nM on Histamine H3 receptor [2].
